This is an account of results in patent US20090149504A1, “Novel 5-Substituted Indole Derivatives As Dipeptidyl Peptidase IV (DPP-IV) Inhibitors” (AURIGENE DISCOVERY TECHNOLOGIES LIMITED, priority 2005, published 2009).

Counter-ions that a name gives are not always drawn.

Test [1] concerns the target T1, DPP-IV from porcine kidney (Sus scrofa, UniProt P22411).
T1 construct: DPP-IV from porcine kidney (D-7052); purchased Sigma Chemical Company, USA D-7052; host or cells: porcine kidney (tissue-derived)
Description: In vitro DPP IV inhibition measurement (fluorimetric, Gly-Pro-AMC substrate). The format is biochemical. Conditions: 50 μM Gly-Pro-AMC, pH 8, 30° C. As to the method: DPP-IV from porcine kidney (D-7052) and the substrate Gly-Pro-7-amido-4-methylcoumar0in hydrobromide (Gly-Pro-AMC, G2761) were obtained from Sigma Chemical Company, USA. Stock solutions of test compounds were prepared in dimethylsulfoxide. DPP IV enzyme cleaves the peptide substrate Gly-Pro-AMC leading to the formation of AMC, which is highly fluorescent. Molecules that inhibit DPP IV prevent or reduce the liberation of AMC from the substrate. The ability of test compounds to inhibit DPP IV was measured fluorimetrically by monitoring the formation of AMC. The assay was carried out in 20 mM Tris.HCl, pH 8 buffer. Test compounds were incubated with the enzyme (5 mU/100 μl) in a 96-well black flat bottom microtiter plate (Greiner bio-one, Germany) for 20 minutes at 30° C. and the reaction was initiated by the addition of 50 μM Gly-Pro-AMC. After 30 minutes incubation at 30° C., the fluorescence at 460 nm was measured (λex=360 nm) in a Spectramax Gemini spectrofluorimeter (Molecular Devices, USA). IC50, the concentration of compound required to inhibit 50% of enzyme activity was determined and the compounds were rated accordingly. For the IC50 determination, non-linear fitting of the dose-response curves were carried out using Kaleidagraph v3 software. LAF237 [Novarti's vildagliptin is a new class of oral antidiabetic agents known as dipeptidyl peptidase IV inhibitors (DPP-IV) inhibitors] was used as the standard inhibitor for the assay.

The target in a further test is T2, Plasma DPP-IV activity (Rattus norvegicus, UniProt P14740).
T2 construct: from tissue; host or cells: plasma of orally dosed male Wistar rats
T2 sequence (P14740 37-767 limits assumed): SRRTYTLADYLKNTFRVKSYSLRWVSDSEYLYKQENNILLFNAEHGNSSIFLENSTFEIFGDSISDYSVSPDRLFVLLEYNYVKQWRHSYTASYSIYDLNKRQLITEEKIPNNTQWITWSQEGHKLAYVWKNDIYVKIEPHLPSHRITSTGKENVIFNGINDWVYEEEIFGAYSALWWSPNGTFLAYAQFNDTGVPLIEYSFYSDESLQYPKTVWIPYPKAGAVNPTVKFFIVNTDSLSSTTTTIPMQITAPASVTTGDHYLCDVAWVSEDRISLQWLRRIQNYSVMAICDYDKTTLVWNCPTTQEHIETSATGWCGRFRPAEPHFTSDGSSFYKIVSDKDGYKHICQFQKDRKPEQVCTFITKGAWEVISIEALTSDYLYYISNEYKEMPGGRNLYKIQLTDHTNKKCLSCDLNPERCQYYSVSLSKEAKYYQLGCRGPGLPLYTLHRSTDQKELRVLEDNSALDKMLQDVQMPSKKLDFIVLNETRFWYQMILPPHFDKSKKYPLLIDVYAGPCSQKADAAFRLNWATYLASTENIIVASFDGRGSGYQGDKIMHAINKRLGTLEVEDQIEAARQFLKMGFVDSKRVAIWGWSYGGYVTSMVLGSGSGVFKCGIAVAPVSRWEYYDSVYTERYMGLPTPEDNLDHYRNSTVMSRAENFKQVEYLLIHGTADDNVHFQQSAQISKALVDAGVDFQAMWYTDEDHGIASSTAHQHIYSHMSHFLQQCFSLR
Kind of test: In vivo efficacy study in rat: plasma DPP-IV activity after oral dosing. The settings on record: 3 mg/kg oral, male wistar rats, measured at 20 min after glucose challenge. The method, then: DPP-IV from porcine kidney (D-7052) and the substrate Gly-Pro-7-amido-4-methylcoumar0in hydrobromide (Gly-Pro-AMC, G2761) were obtained from Sigma Chemical Company, USA. Stock solutions of test compounds were prepared in dimethylsulfoxide. DPP IV enzyme cleaves the peptide substrate Gly-Pro-AMC leading to the formation of AMC, which is highly fluorescent. Molecules that inhibit DPP IV prevent or reduce the liberation of AMC from the substrate. The ability of test compounds to inhibit DPP IV was measured fluorimetrically by monitoring the formation of AMC. The assay was carried out in 20 mM Tris.HCl, pH 8 buffer. […] After 30 minutes incubation at 30° C., the fluorescence at 460 nm was measured (λex=360 nm) in a Spectramax Gemini spectrofluorimeter (Molecular Devices, USA). […]
Male wistar rats were divided into groups of 6, fasted for approximately 16-18 hours before the experiment, and dosed orally with 0.3, 1, 3 and 10 mg/kg of the test compounds in carboxymethylcellulose (CMC) or Tween 80. […] Blood samples obtained at various time points from chronic jugular vein catheters/retro orbital bleed were analyzed for plasma glucose and plasma DPP-IV activity. Measurement of Plasma glucose was carried out using Merckotest Glucose kit (GOD-POD method, Merck) in Selectra Clinical Chemistry analyzer, and area under the curve (AUC) for glucose (0-120 min) was calculated. […]

For a further test, the system named is Male wistar rats. Kind of test: In vivo efficacy study in rat: oral glucose tolerance (plasma glucose). The settings on record: 3 mg/kg oral, 2 g/kg oral glucose, measured at 20 min after glucose challenge. As to the method: Male wistar rats were divided into groups of 6, fasted for approximately 16-18 hours before the experiment, and dosed orally with 0.3, 1, 3 and 10 mg/kg of the test compounds in carboxymethylcellulose (CMC) or Tween 80. After 30 min of test compound dosing, an oral glucose bolus of 2 g/kg was administered directly into the stomach of the test animals. Blood samples obtained at various time points from chronic jugular vein catheters/retro orbital bleed were analyzed for plasma glucose and plasma DPP-IV activity. Measurement of Plasma glucose was carried out using Merckotest Glucose kit (GOD-POD method, Merck) in Selectra Clinical Chemistry analyzer, and area under the curve (AUC) for glucose (0-120 min) was calculated. Plasma DPP-IV activity was measured as described above (Example-64), using 2 μl plasma for every reaction.

The subject of a further test is Zucker fa/fa fatty rats. Description: In vivo efficacy in genetic models: oral glucose challenge in Zucker fa/fa rats. Details: species or system rat. The settings on record: 3 mg/kg. As to the method: (a) Zucker fa/fa rats Zucker fa/fa fatty rats were obtained from IffaCredo, France. The animals were maintained under 12 hour light and dark cycle at 24+/−2° C., given standard laboratory chow (NIN, Hyderabad, India) and water, ad libitum. The test compound (Example-4) was administered at 3 mg/kg dose to overnight fasted animals. The control animals received the vehicle (0.2% tween 80, dosed at 1 ml/kg) orally. Thirty minutes after administration of test compound, 2 g/kg glucose at 5 ml/kg was administered by oral gavage. Blood samples were collected at 0 (prior to compound administration), 7, 20, 40, 60 and 120 min after glucose challenge, for estimation of plasma glucose and insulin levels, and DPP-IV activity. Additional blood samples were collected in chilled EDTA tubes and immediately DPP-IV inhibitor (Linco Research, USA) was added to achieve final concentration of 10 μl/mL of blood to estimate GLP-1 levels. Blood samples were centrifuged and separated plasma samples were stored at −20° C. until analysis. Plasma DPP-IV activity and glucose levels were measured as described above (Example-65). Insulin and GLP-1 levels were measured using ELISA kits, as per manufacturer's procedures (Linco Research, USA). […] There was a 7-fold increase in GLP-1 levels at 7 min and 6-fold increase in insulin levels at 15 min after glucose challenge.

The test system of test [2] is Male C57BL/KsJ-db/db mice. Kind of test: In vivo efficacy in genetic models: oral glucose challenge in db/db mice. The settings on record: 3 mg/kg. As to the method: (b) db/db mice Male C57BL/KsJ-db/db mice of 8 to 14 weeks age, having body weight in the range of 35 to 60 grams, bred at Discovery Research, Dr. Reddy's Laboratories, were used in the experiment. The animals were maintained under 12 hour light and dark cycle at 24+/−2° C., given standard laboratory chow (NIN, Hyderabad, India) and water, ad libitum. The test compound (Example-4) was administered at 3 mg/kg dose. The control animals received the vehicle (0.2% Tween 80, dosed at 10 ml/kg) through oral gavage. 30 minutes after administration of test compound, 1.5 g/kg glucose at 10 ml/kg was administered by oral gavage. Blood samples were collected at 0 (prior to compound administration), 15, 30, 60 and 120 min after glucose challenge for estimation of plasma glucose levels, insulin and DPP-IV activity. Blood samples (0, 7, 15 min) from a satellite group of animals were collected in chilled EDTA tubes and immediately DPP-IV inhibitor (Linco Research) was added to achieve final concentration of 10 μl/mL of blood to estimate GLP-1 levels. Blood samples were centrifuged and separated plasma was stored at −20° C. until analysis. Glucose, Insulin and GLP-1 levels, and plasma DPP-IV activity were measured as described above (Example-66). Compound (Example-4) reduced the glucose levels by 58%. There was 16-fold increase in GLP-1 levels at 7 min and 5.4-fold increase in insulin levels at 15 min after glucose challenge.

The mark [3] stands for this setting: at 7 min after glucose challenge.
Where [4] appears, read: at 15 min after glucose challenge.

T1 sequence (P22411 whole entry): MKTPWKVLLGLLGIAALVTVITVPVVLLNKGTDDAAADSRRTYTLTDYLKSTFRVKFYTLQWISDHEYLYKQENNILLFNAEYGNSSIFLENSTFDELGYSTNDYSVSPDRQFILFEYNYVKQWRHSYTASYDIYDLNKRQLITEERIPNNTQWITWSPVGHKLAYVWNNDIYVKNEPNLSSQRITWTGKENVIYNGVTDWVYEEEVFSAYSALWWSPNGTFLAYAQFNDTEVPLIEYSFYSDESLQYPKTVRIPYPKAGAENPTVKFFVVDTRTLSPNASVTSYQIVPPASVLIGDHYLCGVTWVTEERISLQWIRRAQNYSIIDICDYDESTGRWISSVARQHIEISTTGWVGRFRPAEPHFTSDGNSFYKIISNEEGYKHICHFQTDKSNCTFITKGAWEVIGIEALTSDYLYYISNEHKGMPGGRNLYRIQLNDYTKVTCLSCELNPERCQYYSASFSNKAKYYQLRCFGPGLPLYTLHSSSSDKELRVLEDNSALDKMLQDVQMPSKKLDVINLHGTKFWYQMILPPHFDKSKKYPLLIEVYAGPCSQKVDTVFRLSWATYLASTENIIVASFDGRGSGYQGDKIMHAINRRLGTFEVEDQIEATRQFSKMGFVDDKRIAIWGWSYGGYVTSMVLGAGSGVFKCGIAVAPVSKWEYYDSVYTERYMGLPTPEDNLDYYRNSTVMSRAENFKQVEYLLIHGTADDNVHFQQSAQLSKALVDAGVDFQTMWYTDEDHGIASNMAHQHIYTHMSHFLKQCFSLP

Consider `N#C[C@@H]1CCCN1C(=O)[C@@H](N)Cc1c[nH]c2ccc(Oc3ccc([N+](=O)[O-])cn3)cc12` [Example 4, Trifluoroacetic acid salt], for which half-maximal inhibition in test [1] (IC50) was put at 1.32 nM. At Plasma DPP-IV activity, the inhibition at 3 mg/kg was 90%. The “% Glucose reduction” value in the test with Male wistar rats was found to be 34%. In the test on Zucker fa/fa fatty rats (2 g/kg oral glucose 30 min after compound), this compound yielded a reduction in glucose of 55%. The “increase in GLP-1 levels” value in the test on Zucker fa/fa fatty rats (setting [3]) worked out at 7 fold; in test [2] (setting [3]), 16 fold. Besides, the results for the “increase in insulin levels” value (in the test on Zucker fa/fa fatty rats (setting [4]); in test [2] (setting [4])) were 6 fold and 5.4 fold, respectively. For the same compound, the “reduced the glucose levels” value in test [2] (1.5 g/kg oral glucose 30 min after compound) stood at 58%.

Compound `N#Cc1ccc(Oc2ccc3[nH]cc(C[C@H](N)C(=O)N4CCC[C@H]4C#N)c3c2)nc1` [Example 6, (S,S) 6-{3-[2-Amino-3-(2-cyano-pyrrolidin-1-yl)-3-oxo-propyl]-1H-indol-5-yloxy}-nicotinonitrile. Trifluoroacetic acid salt] showed an IC50 in test [1] of 5.5 nM.

`N#C[C@@H]1CCCN1C(=O)[C@@H](N)Cc1c[nH]c2ccc(Oc3ccc([N+](=O)[O-])cc3)cc12` [Example 12] returned an IC50 in test [1] of 1.82 nM. At Plasma DPP-IV activity, this compound showed an inhibition at 3 mg/kg of 74%. Also, the “% Glucose reduction” value in the test with Male wistar rats was 22%.

Compound `N#Cc1cccnc1Oc1ccc2[nH]cc(C[C@H](N)C(=O)N3C[C@@H](F)C[C@H]3C#N)c2c1` [Example 27, (S,S,S) 2-{3-[2-Amino-3-(2-cyano-4-fluoro-pyrrolidin-1-yl)-3-oxo-propyl]-1H-indol-5-yloxy} nicotinonitrile. Trifluoroacetic acid salt] yielded an IC50 in test [1] of 8.9 nM.

`N#C[C@@H]1C[C@H](F)CN1C(=O)[C@@H](N)Cc1c[nH]c2ccc(Oc3ccc([N+](=O)[O-])cc3)cc12` [Example 28, Trifluoroacetic acid salt] displayed an IC50 in test [1] of 1.5 nM.

Turning to `N#Cc1ccc(Oc2ccc3[nH]cc(C[C@H](N)C(=O)N4C[C@@H](F)C[C@H]4C#N)c3c2)nc1` [Example 30, (S,S,S) 6-{3-[2-Amino-3-(2-cyano-4-fluoro-pyrrolidin-1-yl)-3-oxo-propyl]-1H-indol-5-yloxy}-nicotinonitrile. Trifluoroacetic acid salt], in test [1], inhibition was half-maximal at 4.7 nM (IC50).

The compound `N#Cc1cccnc1Oc1ccc2[nH]cc(C[C@H](N)C(=O)N3CSC[C@@H]3C#N)c2c1` [Example 32, (S,S) 2-{3-[2-Amino-3-(4-cyano-thiazolidin-3-yl)-3-oxo-propyl]-1H-indol-5-yloxy}-nicotinonitrile. Trifluoroacetic acid salt] displayed an IC50 in test [1] of 6.3 nM.

`N#Cc1ccc(Oc2ccc3[nH]cc(C[C@H](N)C(=O)N4CSC[C@@H]4C#N)c3c2)nc1` [Example 33, (S,S) 6-{3-[2-Amino-3-(4-cyano-thiazolidin-3-yl)-3-oxo-propyl]-1H-indol-5-yloxy}-nicotinonitrile. Trifluoroacetic acid salt] yielded an IC50 in test [1] of 3.5 nM.

For `N#C[C@H]1CSCN1C(=O)[C@@H](N)Cc1c[nH]c2ccc(Oc3ccc([N+](=O)[O-])cc3)cc12` [Example 34, Trifluoroacetic acid salt], the IC50 in test [1] worked out at 2.8 nM.

`N#C[C@H]1CSCN1C(=O)[C@@H](N)Cc1c[nH]c2ccc(Oc3ccc([N+](=O)[O-])cn3)cc12` [Example 35, (S,S) 3-{2-Amino-3-[5-(5-nitro-pyridin-2-yloxy)-1H-indol-3-yl]-propionyl}-thiazolidine-4-carbonitrile. Trifluoroacetic acid salt] had an IC50 in test [1] of 3.7 nM.

The term IC50 denotes the concentration that inhibits the measured activity by half. What is called inhibition is the change of the read-out against control, counted positive when it falls. A low value points to a response near the control.
